From article PMC11285948, “The effects of CYP2B6 inactivators on the metabolism of ciprofol” (PLOS ONE, 2024)
Values joined by “and” are separate entries in the source; they are usually repeats but may differ in a detail not shown here. Equal entries are not always repeated.

Experiments:
[1] = tested on: rat liver microsomes (RLMs); experiment: Ciprofol metabolism in RLM incubation system (incubation time, protein concentration, enzyme kinetics); assay type: in vitro ADME; settings: for reduction of ciprofol ΔC (Enzymatic reaction kinetics): ΔC1-ΔC3 and Mean; for ciprofol concentration in incubation system (Incubation time) / ciprofol concentration in incubation system (Liver microsomal protein concentration): C1-C3 and Mean; for ciprofol concentration in incubation system (Liver microsomal protein concentration): RLMs, ciprofol 25 μg·mL^-1, 40 min
Method: (§1) The volume of the incubation system was 200 μL and included 2 μL of substrate (ciprofol), 8 μL of rat liver microsomes (RLMs) or 6 μL of human liver microsomes (HLMs), 12 μL of NADPH generation system of solution (solution A 10 μL, solution B 2 μL), and the remaining volume was PBS. The incubation was performed in a water bath at a constant temperature of 37°C, and each sample was incubated three times in parallel.
(§2) The incubation system was removed from the water bath, and the reaction was terminated immediately by adding 800 μL of reaction termination solution (acetonitrile solution containing 5 μg·mL^-1 D6-ciprofol at 4°C). The mixture was vortexed for 2 min and centrifuged for 15 min, after which the supernatant was transferred to an autosampler vial for HPLC-MS/MS detection.
(§3) The concentrations of ciprofol and liver microsomal proteins in the RLM incubation system were set at 25 μg·mL^-1 and 0.8 mg·mL^-1, respectively, whereas those in the HLM incubation system were set at 40 μg·mL^-1 and 0.6 mg·mL^-1, respectively. Samples were obtained and assayed after 0, 10, 20, 30, 40, 60, 80, 100 and 120 min of incubation, and the optimum incubation time was determined according to the decreasing trend in ciprofol concentration.
(§4) The ciprofol concentrations in the RLM and HLM incubation systems were set at 25 and 40 μg·mL^-1, respectively. The liver microsomal protein concentrations were 0, 0.1, 0.2, 0.4, 0.6, 0.8 and 1.0 mg·mL^-1. The optimal protein concentration in the incubation system was determined based on the reduction of ciprofol (ΔC) after 40 min of incubation in RLMs and 60 min in HLMs.
(§5) The liver microsomal protein concentrations in the RLM incubation system and the HLM incubation system were 0.8 mg·mL^-1 and 0.6 mg·mL^-1, and the cells were incubated for 40 min and 60 min, respectively. The ciprofol concentrations in the incubation system were set at 4, 8, 16, 32, 48 and 80 μg·mL^-1, and the kinetic parameters of ciprofol metabolism were investigated based on ΔC values at different initial ciprofol concentrations (C0).
(§6) The substrate elimination method was employed in this study, and GraphPad Prism 8.0.2 software was used for statistical processing, including determination of the kinetic parameters of ciprofol metabolism and the IC50 values of psoralen and clopidogrel for ciprofol metabolism. The maximum velocity (Vmax), Michaelis constant (Km) and intrinsic clearance (CLint) were calculated using the […]: V=Vmax×[S]/Km+[S] CLint=Vmax/Km

[2] = tested on: human liver microsomes (HLMs); experiment: Ciprofol metabolism in HLM incubation system (incubation time, protein concentration, enzyme kinetics); assay type: in vitro ADME; settings: for reduction of ciprofol ΔC (Enzymatic reaction kinetics): ΔC1-ΔC3 and Mean; for ciprofol concentration in incubation system (Incubation time): C1-C3 and Mean
Method: as §1, §2, §3, §4, §5, §6

Compound: CC(C)c1cccc([C@H](C)C2CC2)c1O [ciprofol]
- Km of ciprofol metabolism ([1]; RLMs 0.8 mg·mL^-1, 40 min): 25.11 µg/mL
- Vmax of ciprofol metabolism ([1]; RLMs 0.8 mg·mL^-1, 40 min): 14.06 ng·min^-1·mg protein^-1
- reduction of ciprofol ΔC (Enzymatic reaction kinetics) ([1]; RLMs 0.8 mg·mL^-1, 40 min, initial ciprofol C 4 μg/mL): 2.12 µg/mL and 1.71 µg/mL and 2.14 µg/mL and 1.99 µg/mL
- reduction of ciprofol ΔC (Enzymatic reaction kinetics) ([1]; RLMs 0.8 mg·mL^-1, 40 min, initial ciprofol C 8 μg/mL): 3.40 µg/mL and 3.72 µg/mL and 3.90 µg/mL and 3.68 µg/mL
- reduction of ciprofol ΔC (Enzymatic reaction kinetics) ([1]; RLMs 0.8 mg·mL^-1, 40 min, initial ciprofol C 16 μg/mL): 5.07 µg/mL and 6.04 µg/mL and 4.94 µg/mL and 5.35 µg/mL
- reduction of ciprofol ΔC (Enzymatic reaction kinetics) ([1]; RLMs 0.8 mg·mL^-1, 40 min, initial ciprofol C 32 μg/mL): 7.10 µg/mL and 8.64 µg/mL and 7.63 µg/mL and 7.79 µg/mL
- reduction of ciprofol ΔC (Enzymatic reaction kinetics) ([1]; RLMs 0.8 mg·mL^-1, 40 min, initial ciprofol C 48 μg/mL): 9.57 µg/mL and 8.62 µg/mL and 8.97 µg/mL and 9.05 µg/mL
- reduction of ciprofol ΔC (Enzymatic reaction kinetics) ([1]; RLMs 0.8 mg·mL^-1, 40 min, initial ciprofol C 80 μg/mL): 10.20 µg/mL and 11.72 µg/mL and 10.73 µg/mL and 10.88 µg/mL
- ciprofol concentration in incubation system (Incubation time) ([1]; RLMs 0.8 mg·mL^-1, ciprofol 25 μg·mL^-1, T 0 min): 25.04 µg/mL and 26.05 µg/mL and 27.04 µg/mL and 26.04 µg/mL
- ciprofol concentration in incubation system (Incubation time) ([1]; RLMs 0.8 mg·mL^-1, ciprofol 25 μg·mL^-1, T 10 min): 21.96 µg/mL and 25.48 µg/mL and 25.19 µg/mL and 24.21 µg/mL
- ciprofol concentration in incubation system (Incubation time) ([1]; RLMs 0.8 mg·mL^-1, ciprofol 25 μg·mL^-1, T 20 min): 20.63 µg/mL and 19.64 µg/mL and 23.74 µg/mL and 21.34 µg/mL
- ciprofol concentration in incubation system (Incubation time) ([1]; RLMs 0.8 mg·mL^-1, ciprofol 25 μg·mL^-1, T 30 min): 17.46 µg/mL and 18.48 µg/mL and 22.67 µg/mL and 19.53 µg/mL
- ciprofol concentration in incubation system (Incubation time) ([1]; RLMs 0.8 mg·mL^-1, ciprofol 25 μg·mL^-1, T 40 min): 16.32 µg/mL and 16.15 µg/mL and 19.54 µg/mL and 17.34 µg/mL
- ciprofol concentration in incubation system (Incubation time) ([1]; RLMs 0.8 mg·mL^-1, ciprofol 25 μg·mL^-1, T 60 min): 15.01 µg/mL and 16.57 µg/mL and 18.99 µg/mL and 16.86 µg/mL
- ciprofol concentration in incubation system (Incubation time) ([1]; RLMs 0.8 mg·mL^-1, ciprofol 25 μg·mL^-1, T 80 min): 13.80 µg/mL and 14.14 µg/mL and 18.20 µg/mL and 15.38 µg/mL
- ciprofol concentration in incubation system (Incubation time) ([1]; RLMs 0.8 mg·mL^-1, ciprofol 25 μg·mL^-1, T 100 min): 12.48 µg/mL and 12.69 µg/mL and 17.81 µg/mL and 14.32 µg/mL
- ciprofol concentration in incubation system (Incubation time) ([1]; RLMs 0.8 mg·mL^-1, ciprofol 25 μg·mL^-1, T 120 min): 11.61 µg/mL and 11.81 µg/mL and 16.86 µg/mL and 13.43 µg/mL
- ciprofol concentration in incubation system (Liver microsomal protein concentration) ([1]; Cprotein 0 mg/mL): 24.55 µg/mL and 25.68 µg/mL and 26.29 µg/mL and 25.50 µg/mL
- ciprofol concentration in incubation system (Liver microsomal protein concentration) ([1]; Cprotein 0.1 mg/mL): 23.43 µg/mL and 22.66 µg/mL and 24.40 µg/mL and 23.50 µg/mL
- ciprofol concentration in incubation system (Liver microsomal protein concentration) ([1]; Cprotein 0.2 mg/mL): 21.66 µg/mL and 22.34 µg/mL and 19.74 µg/mL and 21.25 µg/mL
- ciprofol concentration in incubation system (Liver microsomal protein concentration) ([1]; Cprotein 0.4 mg/mL): 19.22 µg/mL and 19.23 µg/mL and 17.57 µg/mL and 18.67 µg/mL
- ciprofol concentration in incubation system (Liver microsomal protein concentration) ([1]; Cprotein 0.6 mg/mL): 19.49 µg/mL and 17.16 µg/mL and 15.28 µg/mL and 17.31 µg/mL
- ciprofol concentration in incubation system (Liver microsomal protein concentration) ([1]; Cprotein 0.8 mg/mL): 18.46 µg/mL and 15.72 µg/mL and 14.74 µg/mL and 16.31 µg/mL
- ciprofol concentration in incubation system (Liver microsomal protein concentration) ([1]; Cprotein 1 mg/mL): 17.05 µg/mL and 19.78 µg/mL and 13.60 µg/mL and 16.81 µg/mL
- Km of ciprofol metabolism ([2]; HLMs 0.6 mg·mL^-1, 60 min): 40.07 µg/mL
- Vmax of ciprofol metabolism ([2]; HLMs 0.6 mg·mL^-1, 60 min): 42.39 ng·min^-1·mg protein^-1
- reduction of ciprofol ΔC (Enzymatic reaction kinetics) ([2]; HLMs 0.6 mg·mL^-1, 60 min, initial ciprofol C 4 μg/mL): 3.114 µg/mL and 3.093 µg/mL and 3.175 µg/mL and 3.13 µg/mL
- reduction of ciprofol ΔC (Enzymatic reaction kinetics) ([2]; HLMs 0.6 mg·mL^-1, 60 min, initial ciprofol C 8 μg/mL): 6.89 µg/mL and 6.98 µg/mL and 7.022 µg/mL and 6.96 µg/mL
- reduction of ciprofol ΔC (Enzymatic reaction kinetics) ([2]; HLMs 0.6 mg·mL^-1, 60 min, initial ciprofol C 16 μg/mL): 12.73 µg/mL and 12.88 µg/mL and 12.21 µg/mL and 12.61 µg/mL
- reduction of ciprofol ΔC (Enzymatic reaction kinetics) ([2]; HLMs 0.6 mg·mL^-1, 60 min, initial ciprofol C 32 μg/mL): 17.77 µg/mL and 19.4 µg/mL and 16.95 µg/mL and 18.04 µg/mL
- reduction of ciprofol ΔC (Enzymatic reaction kinetics) ([2]; HLMs 0.6 mg·mL^-1, 60 min, initial ciprofol C 48 μg/mL): 23.33 µg/mL and 25.1 µg/mL and 23.91 µg/mL and 24.11 µg/mL
- reduction of ciprofol ΔC (Enzymatic reaction kinetics) ([2]; HLMs 0.6 mg·mL^-1, 60 min, initial ciprofol C 80 μg/mL): 28.42 µg/mL and 27.74 µg/mL and 27.36 µg/mL and 27.84 µg/mL
- ciprofol concentration in incubation system (Incubation time) ([2]; HLMs 0.6 mg·mL^-1, ciprofol 40 μg·mL^-1, T 0 min): 37.89 µg/mL and 38.98 µg/mL and 40.56 µg/mL and 39.14 µg/mL
- ciprofol concentration in incubation system (Incubation time) ([2]; HLMs 0.6 mg·mL^-1, ciprofol 40 μg·mL^-1, T 10 min): 36.11 µg/mL and 34.79 µg/mL and 36.39 µg/mL and 35.76 µg/mL
